Consider 1 compound from US11331294B2, “Benzoquinone derivative E3330 in combination with chemotherapeutic agents for the treatment of bladder cancer” (Indiana University Research and Technology Corporation, priority 2007, dated 2022).

In the experiment the test system is SF767 glioma cells. Put plainly: Glioma cell migration (scratch) assay. The format is cell-based. To be noted: 100 μM, 48 h. As for the experimental part: Glioma Cell Migration Assay. APX3330 was tested to determine if it would inhibit the migration ability of SF767 glioma cells. In order to do this, we plated 1.5×10^6 SF767 cells in a 60 mm tissue culture dish and allowed them to attach overnight and form a confluent monolayer. A scratch or wound was made across the plate using a 200 μL pipette tip as described previously (Liang 2007). The cells were then rinsed to remove floating cells and media contain 25, 50, 75 or 100 μM APX3330 or the appropriate vehicle control, DMSO. The drug-containing media was removed after 24 h and fresh media was added Images were taken at three marked places along the scratch at 0, 24, 36 and 48 h after the drug was added. Migration was quantified in ten uniform places for each image taken using Spot Software (Diagnostic Instruments, Sterling Heights, Mich.) to measure the distance in microns between the leading edges of the scratch. Each set of data, a total of thirty for each data point, was normalized to the migration of the vehicle control at 0 h and used to determine standard deviation.

In the case of `CCCCCCCCC/C(=C\C1=C(C)C(=O)C(OC)=C(OC)C1=O)C(=O)O` [APX3330], the “inhibition of migration compared to vehicle control” value stood at 4.0 fold.
